Assay results reported in the supplement of paper PMC11061612.

Assays:
Carboplatin = compound: C1CC(C1)(C(=O)[O-])C(=O)[O-].N.N.[Pt+2] [Carboplatin]; conditions: max 10 µM
How it was run: (§1)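 Cancer cell lines were seeded in 1536-well plates in 7.5 μl DMEM/F12 or RPMI with 10% FBS, held 24 hours at 37°C and 5% CO2, then dosed for 72 hours (final DMSO typically 0.2%). Viability was read by CellTiter-Glo 2.0 luminescence and scaled between blank-well and DMSO-well means. The single-agent IC50 comes from dose responses fitted to a two-parameter logistic curve with a non-linear mixed effects model.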

AZD5363 = compound: C1CN(CCC1(C(=O)N[C@@H](CCO)C2=CC=C(C=C2)Cl)N)C3=NC=NC4=C3C=CN4 [AZD5363]; conditions: max 10 µM
How it was run: as §1

AZD1775 = compound: C=CCn1c(=O)c2cnc(Nc3ccc(N4CCN(C)CC4)cc3)nc2n1-c1cccc(C(C)(C)O)n1 [AZD1775]; conditions: max 3 µM
How it was run: as §1

Trametinib = compound: CC(=O)Nc1cccc(-n2c(=O)n(C3CC3)c(=O)c3c(Nc4ccc(I)cc4F)n(C)c(=O)c(C)c32)c1 [Trametinib]; conditions: max 1 µM
How it was run: as §1

Paclitaxel = compound: CC(=O)O[C@H]1C(=O)[C@@]2(C)[C@H]([C@H](OC(=O)c3ccccc3)[C@]3(O)C[C@H](OC(=O)[C@H](O)[C@@H](NC(=O)c4ccccc4)c4ccccc4)C(C)=C1C3(C)C)[C@]1(OC(C)=O)CO[C@@H]1C[C@@H]2O [Paclitaxel]; conditions: max 3 µM
How it was run: as §1

Palbociclib = compound: CC(=O)c1c(C)c2cnc(Nc3ccc(N4CCNCC4)cn3)nc2n(C2CCCC2)c1=O [Palbociclib]; conditions: max 10 µM
How it was run: as §1

AZD1390 = compound: CC(C)n1c(=O)n(C)c2cnc3cc(F)c(-c4ccc(OCCCN5CCCCC5)nc4)cc3c21 [AZD1390]; conditions: max 0.3 µM
How it was run: as §1

Venetoclax = compound: CC1(C)CCC(CN2CCN(c3ccc(C(=O)NS(=O)(=O)c4ccc(NCC5CCOCC5)c([N+](=O)[O-])c4)c(Oc4cnc5[nH]ccc5c4)c3)CC2)=C(c2ccc(Cl)cc2)C1 [Venetoclax]; conditions: max 1 µM
How it was run: as §1

Dasatinib = compound: CC1=C(C(=CC=C1)Cl)NC(=O)C2=CN=C(S2)NC3=CC(=NC(=N3)C)N4CCN(CC4)CCO [Dasatinib]; conditions: max 2 µM
How it was run: as §1

SG3199 = compound: CC1=CN2[C@@H](C1)C=NC3=CC(=C(C=C3C2=O)OC)OCCCCCOC4=C(C=C5C(=C4)N=C[C@@H]6CC(=CN6C5=O)C)OC [SG3199]; conditions: max 0.001 µM
How it was run: as §1

AZD2811 = compound: CCN(CCO)CCCOc1ccc2c(Nc3cc(CC(=O)Nc4cccc(F)c4)[nH]n3)ncnc2c1 [AZD2811]; conditions: max 1 µM
How it was run: as §1

SN-38 = compound: CCc1c2c(nc3ccc(O)cc13)-c1cc3c(c(=O)n1C2)COC(=O)[C@]3(O)CC [SN-38]; conditions: max 0.3 µM
How it was run: as §1

AZD0156 = compound: CN(C)CCCOc1ccc(-c2ccc3ncc4c(c3c2)n(C2CCOCC2)c(=O)n4C)cn1 [AZD0156]; conditions: max 3 µM
How it was run: as §1

AZD4320 = compound: CN(CC[C@H](CSC1=CC=CC=C1)NC2=C(C=C(C=C2)S(=O)(=O)NC(=O)C3=CC=C(C=C3)N4CCC(CC4)[C@H](C5=CC=CC=C5C6=CC=C(C=C6)Cl)O)S(=O)(=O)C(F)(F)F)CCO [AZD4320]; conditions: max 1 µM
How it was run: as §1

Alisertib = compound: COc1cc(Nc2ncc3c(n2)-c2ccc(Cl)cc2C(c2c(F)cccc2OC)=NC3)ccc1C(=O)O [Alisertib]; conditions: max 10 µM
How it was run: as §1

Etoposide = compound: COc1cc([C@@H]2c3cc4c(cc3[C@@H](O[C@@H]3O[C@@H]5CO[C@@H](C)O[C@H]5[C@H](O)[C@H]3O)[C@H]3COC(=O)[C@H]23)OCO4)cc(OC)c1O [Etoposide]; conditions: max 10 µM
How it was run: as §1

Gefitinib = compound: COc1cc2ncnc(Nc3ccc(F)c(Cl)c3)c2cc1OCCCN1CCOCC1 [Gefitinib]; conditions: max 10 µM
How it was run: as §1

Prexasertib = compound: COc1cccc(OCCCN)c1-c1cc(Nc2cnc(C#N)cn2)n[nH]1 [Prexasertib]; conditions: max 1 µM
How it was run: as §1

Doxorubicin = compound: COc1cccc2c1C(=O)c1c(O)c3c(c(O)c1C2=O)C[C@@](O)(C(=O)CO)C[C@@H]3O[C@H]1C[C@H](N)[C@H](O)[C@H](C)O1 [Doxorubicin]; conditions: max 1 µM
How it was run: as §1

AZD5153 = compound: COc1nnc2ccc(N3CCC(c4ccc(OCCN5CCN(C)C(=O)[C@H]5C)cc4)CC3)nn12 [AZD5153]; conditions: max 1 µM
How it was run: as §1

Lapatinib = compound: CS(=O)(=O)CCNCc1ccc(-c2ccc3ncnc(Nc4ccc(OCc5cccc(F)c5)c(Cl)c4)c3c2)o1 [Lapatinib]; conditions: max 10 µM
How it was run: as §1

AZD8186 = compound: C[C@@H](Nc1cc(F)cc(F)c1)c1cc(C(=O)N(C)C)cc2c(=O)cc(N3CCOCC3)oc12 [AZD8186]; conditions: max 10 µM
How it was run: as §1

Crizotinib = compound: C[C@@H](Oc1cc(-c2cnn(C3CCNCC3)c2)cnc1N)c1c(Cl)ccc(F)c1Cl [Crizotinib]; conditions: max 10 µM
How it was run: as §1

Savolitinib = compound: C[C@@H](c1ccc2nccn2c1)n1nnc2ncc(-c3cnn(C)c3)nc21 [Savolitinib]; conditions: max 1 µM
How it was run: as §1

AZD6738 = compound: C[C@@H]1COCCN1C2=NC(=NC(=C2)C3(CC3)[S@](=N)(=O)C)C4=C5C=CNC5=NC=C4 [AZD6738]; conditions: max 10 µM
How it was run: as §1

AZD5991 = compound: Cc1c2c(nn1C)CSCc1cc(n(C)n1)CSc1cc(c3ccccc3c1)OCCCc1c(C(=O)O)n(C)c3c-2c(Cl)ccc13 [AZD5991]; conditions: max 1 µM
How it was run: as §1

AZD7648 = compound: Cc1cc2ncnn2cc1Nc1ncc2c(n1)n(C1CCOCC1)c(=O)n2C [AZD7648]; conditions: max 10 µM
How it was run: as §1

Taselisib = compound: Cc1nc(-c2cn3c(n2)-c2ccc(-c4cnn(C(C)(C)C(N)=O)c4)cc2OCC3)n(C(C)C)n1 [Taselisib]; conditions: max 10 µM
How it was run: as §1

Selumetinib = compound: Cn1cnc2c(F)c(Nc3ccc(Br)cc3Cl)c(C(=O)NOCCO)cc21 [Selumetinib]; conditions: max 10 µM
How it was run: as §1

SRA737 = compound: N#Cc1cnc(Nc2cc(NC[C@H]3CNCCO3)c(C(F)(F)F)cn2)cn1 [SRA737]; conditions: max 10 µM
How it was run: as §1

MK-2206 = compound: NC1(c2ccc(-c3nc4ccn5c(=O)[nH]nc5c4cc3-c3ccccc3)cc2)CCC1 [MK-2206]; conditions: max 10 µM
How it was run: as §1

Gemcitabine = compound: Nc1ccn([C@@H]2O[C@H](CO)[C@@H](O)C2(F)F)c(=O)n1 [Gemcitabine]; conditions: max 0.3 µM
How it was run: as §1

[1] = compound: O=C(Nc1ccc2[nH]nc(-c3ccncc3)c2c1)[C@@H]1CCN(CC(=O)N2CCN(c3ccc(-c4ncccn4)cc3)CC2)C1; conditions: max 5 µM
How it was run: as §1

Olaparib = compound: O=C(c1cc(Cc2n[nH]c(=O)c3ccccc23)ccc1F)N1CCN(C(=O)C2CC2)CC1 [Olaparib]; conditions: max 10 µM
How it was run: as §1

5-Fluorouracil = compound: O=c1[nH]cc(F)c(=O)[nH]1 [5-Fluorouracil]; conditions: max 20 µM
How it was run: as §1

Row | Cell Line | IC50, cell viability 72 h (Carboplatin) | IC50, cell viability 72 h (AZD5363) | IC50, cell viability 72 h (AZD1775) | IC50, cell viability 72 h (Trametinib) | IC50, cell viability 72 h (Paclitaxel) | IC50, cell viability 72 h (Palbociclib) | IC50, cell viability 72 h (AZD1390) | IC50, cell viability 72 h (Venetoclax) | IC50, cell viability 72 h (Dasatinib) | IC50, cell viability 72 h (SG3199) | IC50, cell viability 72 h (AZD2811) | IC50, cell viability 72 h (SN-38) | IC50, cell viability 72 h (AZD0156) | IC50, cell viability 72 h (AZD4320) | IC50, cell viability 72 h (Alisertib) | IC50, cell viability 72 h (Etoposide) | IC50, cell viability 72 h (Gefitinib) | IC50, cell viability 72 h (Prexasertib) | IC50, cell viability 72 h (Doxorubicin) | IC50, cell viability 72 h (AZD5153) | IC50, cell viability 72 h (Lapatinib) | IC50, cell viability 72 h (AZD8186) | IC50, cell viability 72 h (Crizotinib) | IC50, cell viability 72 h (Savolitinib) | IC50, cell viability 72 h (AZD6738) | IC50, cell viability 72 h (AZD5991) | IC50, cell viability 72 h (AZD7648) | IC50, cell viability 72 h (Taselisib) | IC50, cell viability 72 h (Selumetinib) | IC50, cell viability 72 h (SRA737) | IC50, cell viability 72 h (MK-2206) | IC50, cell viability 72 h (Gemcitabine) | IC50, cell viability 72 h [1] | IC50, cell viability 72 h (Olaparib) | IC50, cell viability 72 h (5-Fluorouracil)
1 | KYSE-270 (Esophageal Squamous Cell Carcinoma) | > 10000 nM | > 10000 nM | 665 nM | > 1000 nM | 39.4 nM | > 10000 nM | > 300 nM | > 1000 nM | 506 nM | > 1 nM | > 1000 nM | 10.7 nM | > 3000 nM | > 1000 nM | > 10000 nM | 4580 nM | 8190 nM | 8.06 nM | 424 nM | > 1000 nM | 7840 nM | > 10000 nM | > 10000 nM | > 1000 nM | 4160 nM | > 1000 nM | > 10000 nM | 3470 nM | > 10000 nM | 1400 nM | > 10000 nM | 35.9 nM | > 5000 nM | > 10000 nM | 14900 nM
2 | M059J (Glioblastoma) | > 10000 nM | > 10000 nM | 933 nM | > 1000 nM | 17.6 nM | > 10000 nM | > 300 nM | > 1000 nM | 1390 nM | > 1 nM | > 1000 nM | 14.1 nM | > 3000 nM | > 1000 nM | 4060 nM | 2590 nM | > 10000 nM | 241 nM | 230 nM | 164 nM | > 10000 nM | > 10000 nM | > 10000 nM | > 1000 nM | > 10000 nM | > 1000 nM | > 10000 nM | > 10000 nM | > 10000 nM | > 10000 nM | > 10000 nM | 90.9 nM | > 5000 nM | > 10000 nM | > 20000 nM
3 | MN-60 (B-Lymphoblastic Leukemia) | > 10000 nM | > 10000 nM | > 3000 nM | > 1000 nM | 674 nM | > 10000 nM | > 300 nM | > 1000 nM | > 2000 nM | > 1 nM | > 1000 nM | 14.6 nM | > 3000 nM | > 1000 nM | > 10000 nM | > 10000 nM | > 10000 nM | > 1000 nM | > 1000 nM | 111 nM | > 10000 nM | > 10000 nM | > 10000 nM | > 1000 nM | > 10000 nM | > 1000 nM | > 10000 nM | > 10000 nM | > 10000 nM | > 10000 nM | > 10000 nM | 213 nM | > 5000 nM | > 10000 nM | > 20000 nM
4 | MOG-G-CCM (Low Grade Glioma) | > 10000 nM | > 10000 nM | > 3000 nM | > 1000 nM | 4.97 nM | > 10000 nM | > 300 nM | > 1000 nM | 354 nM | > 1 nM | > 1000 nM | 293 nM | > 3000 nM | > 1000 nM | 1930 nM | > 10000 nM | > 10000 nM | 157 nM | > 1000 nM | 449 nM | > 10000 nM | 4390 nM | > 10000 nM | > 1000 nM | > 10000 nM | > 1000 nM | > 10000 nM | 8270 nM | > 10000 nM | > 10000 nM | > 10000 nM | > 300 nM | > 5000 nM | > 10000 nM | > 20000 nM
5 | NCCIT (Other Solid Carcinomas) | > 10000 nM | 8120 nM | 561 nM | > 1000 nM | 11.8 nM | > 10000 nM | > 300 nM | > 1000 nM | > 2000 nM | > 1 nM | > 1000 nM | > 300 nM | > 3000 nM | > 1000 nM | > 10000 nM | > 10000 nM | > 10000 nM | 70.3 nM | > 1000 nM | 33.6 nM | > 10000 nM | > 10000 nM | > 10000 nM | > 1000 nM | 8410 nM | 891 nM | > 10000 nM | 1620 nM | > 10000 nM | > 10000 nM | 6670 nM | > 300 nM | > 5000 nM | > 10000 nM | > 20000 nM
